Results taken from publication PMC5289526, “Crystal Structure and Catalytic Mechanism of CouO, a Versatile C-Methyltransferase from Streptomyces rishiriensis” (PLoS ONE, 2017).

Molecular target: T1, CouO (Streptomyces rishiriensis, UniProt Q9F8T9)
T1 construct: recombinant from E. coli; pET26b-CouO template, pMS470 vector in E. coli TOP10F' for activity assays
Assay: X-ray crystal structure, […] Å
Type: binding
Conditions: one SAH in each of two chains; cofactor site

T1 sequence (Q9F8T9 whole entry): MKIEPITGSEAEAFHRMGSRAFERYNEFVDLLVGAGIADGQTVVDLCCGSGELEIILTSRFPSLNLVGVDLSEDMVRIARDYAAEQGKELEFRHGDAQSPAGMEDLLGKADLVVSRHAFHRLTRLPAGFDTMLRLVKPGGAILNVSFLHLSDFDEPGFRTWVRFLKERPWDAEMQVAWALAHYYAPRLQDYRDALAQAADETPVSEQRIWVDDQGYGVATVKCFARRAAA

Nc1ncnc2c1ncn2[C@@H]1O[C@H](CSCC[C@H](N)C(=O)O)[C@@H](O)[C@H]1O [SAH]
X-ray crystal structure, 2.05 Å: one SAH cofactor molecule was present in each chain
